We go through two compounds from patent US11833204B2, “Visible light-activatable nanoparticles for cancer immunotherapy and use thereof” (KOREA INSTITUTE OF SCIENCE AND TECHNOLOGY, priority 2021, dated 2023).

The subject of data set [1] is CT26 cells. Kind of data set: Immunogenic cell death: extracellular HSP70 and HMGB1 (Western blotting). Format: cell-based. The following applies: CT26, 5 μM, 24 h, +L/−L. As to the method: (§1) First, CT26 cells were plated in 35 mm cell culture dishes at a density of 1×10^5 cells/dish and doxorubicin (DOX) (5 μM), verteporfin (VPF) (5 μM) or the self-assembled nanoparticles (LT-NPs) (5 μM) were added to each dish. After 24-h culture, one half was exposed by irradiation with visible light using a 671 nm laser at 40 mW for 250 sec (+L) and the other half was not irradiated with visible light for comparison (−L). The immunogenic cell death of the self-assembled nanoparticles (LT-NPs) was evaluated using the cells and the cell culture media.
Before staining the cells with APC-conjugated CRT antibody, culture media were separated from the cells and the extracellular expression levels of HMGB1 and HSP70 were analyzed by Western blotting.
Each cell culture medium was treated with RIPA buffer (Cell Signaling Technology) at 4° C. for 30 min and the protein amount of the lysate was analyzed using a Pierce BCA protein assay kit (Thermo Fisher Scientific) according to the manufacturer's protocol. After SDS-PAGE, proteins were transferred to a PVDF membrane (Bio-Rad), which was then treated with Tris-buffered saline (TBS-T) containing 5% skim milk and 0.1% Tween-20. The membrane was incubated with primary antibodies at 4° C. overnight. HSP70 and HMGB1 antibodies were used as the primary antibodies. The membrane was washed with TBS-T and incubated with a secondary antibody at room temperature for 1 h. The membrane was washed with TBS-T, treated with EZ-Western Lumi Pico or Femto reagent (DoGen), and analyzed using Fusion-Solo software (Vilber) according to the manufacturer's protocol to determine band intensities.

Data set [2] in a line: Morphological analysis by transmission electron microscopy in saline. The data set is classed as physicochemical. The note with it: 1 mg in 1 mL physiological saline. As to the method: The self-assembled nanoparticles (LT-NPs) prepared in Example 1, doxorubicin (DOX), and verteporfin (VPF) were used as samples. 1 mg of each sample was mixed with physiological saline (1 mL). […] The self-assembled nanoparticles (LT-NPs) were mixed with cathepsin B (Cat-B) protease (50 μg/mL). The mixture was allowed to react for 24 h.

Data set [3] concerns CT26 cells. Kind of data set: Immunogenic cell death: calreticulin expression. Format: cell-based. The following applies: CT26, 5 μM, 24 h, +L/−L. As for the experimental part: as §1
Cells were stained with APC-conjugated CRT antibody for 12 h and observed with a confocal fluorescence microscope.

In data set [4] the test system is CT26 cells. Kind of data set: Apoptosis and necrosis of CT26 cells (Annexin V/PI flow cytometry). The following applies: CT26, visible light. Format: cell-based. As to the method: The degrees of apoptosis and necrosis of cancer cells were quantitatively analyzed to accurately evaluate the anticancer effect of the self-assembled nanoparticles (LT-NPs). First, CT26 cells treated with doxorubicin (DOX), verteporfin (VPF), a mixture of doxorubicin and verteporfin (VPF+DOX) or the self-assembled nanoparticles (LT-NPs) and a laser were prepared as above and treated with 5 μg of Annexin V-FITC and 10 μg of PI solution for 10 min. Then, cells were cultured with a cell fixative for 10 min and further cultured with DAPI for 20 min. The degrees of apoptosis and necrosis were quantitatively analyzed using a flow cytometer (BD FACSVerse, BD bioscience, USA).
For orientation: A flow cytometer gives signals particle by particle.

For data set [5], the system named is CT26 cells. The experiment in a line: Immunogenic cell death: extracellular ATP release. The note with it: CT26, 5 μM, 24 h, +L/−L. Format: cell-based. As for the experimental part: as §1
ATP was analyzed using a commercially available ATP assay kit (Beyotime Biotechnology) according to the manufacturer's protocol.

Turning to `COc1cccc2c1C(=O)c1c(O)c3c(c(O)c1C2=O)C[C@@](O)(C(=O)CO)C[C@@H]3O[C@H]1C[C@H](N)[C@H](O)[C@H](C)O1` [doxorubicin], in data set [1], the HMGB-1 release result is listed as “lowest” and the HSP70 release entry is recorded as “lowest”. For the same compound, the “morphology in physiological saline (TEM)” value in data set [2] was “aggregated”. For the same compound, in data set [3], the calreticulin expression result is “lowest”. For the same compound, the “degree of apoptosis (and necrosis)” value in data set [4] is listed as “very little apoptosis”. For the same compound, the ATP release result in data set [5] was “lowest”.

As for verteporfin, in data set [1], the HMGB-1 release result is reported as “relatively increased” and the HSP70 release entry is “relatively increased”. Moreover, in data set [2], the “morphology in physiological saline (TEM)” value is on record as “aggregated”. For the same compound, the calreticulin expression result in data set [3] was “relatively increased”. For the same compound, in data set [4], the “degree of apoptosis (and necrosis)” value is “considerable apoptosis and necrosis”; the “proportions of early apoptosis, late apoptosis and necrosis” value is listed as “increase the proportion of late apoptosis”. In addition, in data set [5], the ATP release entry was “relatively increased”.
